# Assay results: PubChem BioAssay (NCI)
#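 Interpolation was linear, between the two tested concentrations surrounding the appropriate level; five concentrations were tested over 48 hours in 96-well plates. GI50 marks 50% less growth. Definition used: TGI = concentration required for complete inhibition of growth.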
# Columns and labels:
# Test in all cases: NCI tumour cell line growth inhibition, 48 h
# UACC-257 melanoma = tested on: UACC-257 melanoma
# NCI/ADR-RES ovarian = tested on: NCI/ADR-RES ovarian
# HS 578T breast = tested on: HS 578T breast
# HOP-92 NSCLC = tested on: HOP-92 NSCLC
# BT-549 breast = tested on: BT-549 breast
# HOP-62 NSCLC = tested on: HOP-62 NSCLC
# TK-10 renal = tested on: TK-10 renal
# CAKI-1 renal = tested on: CAKI-1 renal
# HCT-116 colon = tested on: HCT-116 colon
# MOLT-4 leukemia = tested on: MOLT-4 leukemia
# HT29 colon = tested on: HT29 colon
# T-47D breast = tested on: T-47D breast
# SN12C renal = tested on: SN12C renal
# UACC-62 melanoma = tested on: UACC-62 melanoma
# HCT-15 colon = tested on: HCT-15 colon
# SR leukemia = tested on: SR leukemia
# 786-0 renal = tested on: 786-0 renal
# SW-620 colon = tested on: SW-620 colon
# PC-3 prostate = tested on: PC-3 prostate
# CCRF-CEM leukemia = tested on: CCRF-CEM leukemia
# SNB-75 CNS = tested on: SNB-75 CNS
# MCF7 breast = tested on: MCF7 breast
# A498 renal = tested on: A498 renal
# RXF 393 renal = tested on: RXF 393 renal
# SK-MEL-5 melanoma = tested on: SK-MEL-5 melanoma
# OVCAR-8 ovarian = tested on: OVCAR-8 ovarian
# SNB-19 CNS = tested on: SNB-19 CNS
# LOX IMVI melanoma = tested on: LOX IMVI melanoma
# NCI-H23 lung = tested on: NCI-H23 lung
# HCC-2998 colon = tested on: HCC-2998 colon
# KM12 colon = tested on: KM12 colon
# NCI-H522 lung = tested on: NCI-H522 lung
# MDA-MB-231 breast = tested on: MDA-MB-231 breast
# OVCAR-3 ovarian = tested on: OVCAR-3 ovarian
# MDA-MB-435 = tested on: MDA-MB-435
# SK-OV-3 ovarian = tested on: SK-OV-3 ovarian
# OVCAR-4 ovarian = tested on: OVCAR-4 ovarian
# OVCAR-5 ovarian = tested on: OVCAR-5 ovarian
# NCI-H460 lung = tested on: NCI-H460 lung
# SF-295 CNS = tested on: SF-295 CNS
# IGROV1 ovarian = tested on: IGROV1 ovarian
# SF-539 CNS = tested on: SF-539 CNS
# SF-268 CNS = tested on: SF-268 CNS
# RPMI-8226 leukemia = tested on: RPMI-8226 leukemia
# A549 NSCLC = tested on: A549 NSCLC
# K-562 leukemia = tested on: K-562 leukemia
# COLO 205 colon = tested on: COLO 205 colon
# DU-145 prostate = tested on: DU-145 prostate
# MALME-3M melanoma = tested on: MALME-3M melanoma
# U251 CNS = tested on: U251 CNS
# M14 melanoma = tested on: M14 melanoma
# EKVX NSCLC = tested on: EKVX NSCLC
# UO-31 renal = tested on: UO-31 renal
# HL-60(TB) leukemia = tested on: HL-60(TB) leukemia
# SK-MEL-28 melanoma = tested on: SK-MEL-28 melanoma
# ACHN renal = tested on: ACHN renal
smiles,measurement,setting,value
CN=C(N)N/N=C(\C)c1ccc2c(c1)Cc1cc(/C(C)=N/NC(N)=NC)ccc1-2,GI50,UACC-257 melanoma,3230 nM
same,TGI,UACC-257 melanoma,> 100000 nM
same,GI50,NCI/ADR-RES ovarian,10900 nM
same,TGI,NCI/ADR-RES ovarian,> 100000 nM
same,GI50,HS 578T breast,725 nM
same,TGI,HS 578T breast,3760 nM
same,GI50,HOP-92 NSCLC,1330 nM
same,TGI,HOP-92 NSCLC,6150 nM
same,GI50,BT-549 breast,1960 nM
same,TGI,BT-549 breast,5620 nM
same,GI50,HOP-62 NSCLC,668 nM
same,TGI,HOP-62 NSCLC,> 100000 nM
same,GI50,TK-10 renal,2320 nM
same,TGI,TK-10 renal,7090 nM
same,GI50,CAKI-1 renal,2070 nM
same,TGI,CAKI-1 renal,5370 nM
same,GI50,HCT-116 colon,2360 nM
same,TGI,HCT-116 colon,> 100000 nM
same,GI50,MOLT-4 leukemia,422 nM
same,TGI,MOLT-4 leukemia,> 100000 nM
same,GI50,HT29 colon,2130 nM
same,TGI,HT29 colon,> 20800 nM
same,GI50,T-47D breast,2020 nM
same,TGI,T-47D breast,5470 nM
same,GI50,SN12C renal,254 nM
same,TGI,SN12C renal,781 nM
same,GI50,UACC-62 melanoma,2480 nM
same,TGI,UACC-62 melanoma,> 100000 nM
same,GI50,HCT-15 colon,2040 nM
same,TGI,HCT-15 colon,> 100000 nM
same,GI50,SR leukemia,1810 nM
same,TGI,SR leukemia,> 100000 nM
same,GI50,786-0 renal,752 nM
same,TGI,786-0 renal,> 100000 nM
same,GI50,SW-620 colon,2360 nM
same,TGI,SW-620 colon,6190 nM
same,GI50,PC-3 prostate,2130 nM
same,TGI,PC-3 prostate,5800 nM
same,GI50,CCRF-CEM leukemia,444 nM
same,TGI,CCRF-CEM leukemia,> 100000 nM
FC(F)(F)Oc1cccc(-c2cnc3ccc(-c4ccncc4)nn23)c1,GI50,SNB-75 CNS,1730 nM
same,TGI,SNB-75 CNS,5140 nM
same,GI50,UACC-257 melanoma,2020 nM
same,GI50,NCI/ADR-RES ovarian,2090 nM
same,TGI,NCI/ADR-RES ovarian,95500 nM
same,GI50,MCF7 breast,1560 nM
same,TGI,MCF7 breast,6120 nM
same,GI50,HS 578T breast,1210 nM
same,TGI,HS 578T breast,4240 nM
same,GI50,A498 renal,365 nM
same,TGI,A498 renal,2420 nM
same,GI50,HOP-92 NSCLC,1800 nM
same,TGI,HOP-92 NSCLC,7820 nM
same,GI50,RXF 393 renal,398 nM
same,TGI,RXF 393 renal,2410 nM
same,GI50,SK-MEL-5 melanoma,1490 nM
same,TGI,SK-MEL-5 melanoma,3230 nM
same,GI50,OVCAR-8 ovarian,1470 nM
same,TGI,OVCAR-8 ovarian,> 100000 nM
same,GI50,SNB-19 CNS,2070 nM
same,TGI,SNB-19 CNS,> 100000 nM
same,GI50,LOX IMVI melanoma,1070 nM
same,TGI,LOX IMVI melanoma,10200 nM
same,GI50,NCI-H23 lung,1960 nM
same,TGI,NCI-H23 lung,17400 nM
same,GI50,BT-549 breast,1420 nM
same,TGI,BT-549 breast,8880 nM
same,GI50,HCC-2998 colon,4470 nM
same,TGI,HCC-2998 colon,> 100000 nM
same,GI50,HOP-62 NSCLC,2170 nM
same,TGI,HOP-62 NSCLC,> 100000 nM
same,GI50,KM12 colon,662 nM
same,TGI,KM12 colon,> 100000 nM
same,GI50,TK-10 renal,1140 nM
same,TGI,TK-10 renal,9760 nM
same,GI50,NCI-H522 lung,771 nM
same,TGI,NCI-H522 lung,2820 nM
same,GI50,MDA-MB-231 breast,3180 nM
same,TGI,MDA-MB-231 breast,> 100000 nM
same,GI50,CAKI-1 renal,417 nM
same,TGI,CAKI-1 renal,4110 nM
same,GI50,OVCAR-3 ovarian,1650 nM
same,TGI,OVCAR-3 ovarian,7430 nM
same,GI50,MDA-MB-435,2110 nM
same,TGI,MDA-MB-435,48900 nM
same,GI50,SK-OV-3 ovarian,392 nM
same,TGI,SK-OV-3 ovarian,2110 nM
same,GI50,HCT-116 colon,518 nM
same,TGI,HCT-116 colon,> 100000 nM
same,GI50,OVCAR-4 ovarian,1400 nM
same,TGI,OVCAR-4 ovarian,11300 nM
same,GI50,OVCAR-5 ovarian,1960 nM
same,TGI,OVCAR-5 ovarian,> 100000 nM
same,GI50,NCI-H460 lung,996 nM
same,TGI,NCI-H460 lung,> 100000 nM
same,GI50,SF-295 CNS,1540 nM
same,TGI,SF-295 CNS,> 100000 nM
same,GI50,MOLT-4 leukemia,2170 nM
same,TGI,MOLT-4 leukemia,7730 nM
same,GI50,IGROV1 ovarian,502 nM
same,TGI,IGROV1 ovarian,5460 nM
same,GI50,HT29 colon,1340 nM
same,TGI,HT29 colon,> 100000 nM
same,GI50,SF-539 CNS,1130 nM
same,TGI,SF-539 CNS,7400 nM
same,GI50,T-47D breast,571 nM
same,TGI,T-47D breast,4260 nM
same,GI50,SF-268 CNS,2220 nM
same,TGI,SF-268 CNS,> 100000 nM
same,GI50,RPMI-8226 leukemia,1310 nM
same,TGI,RPMI-8226 leukemia,4840 nM
same,GI50,A549 NSCLC,1120 nM
same,TGI,A549 NSCLC,9220 nM
same,GI50,SN12C renal,1560 nM
same,TGI,SN12C renal,> 100000 nM
same,GI50,K-562 leukemia,3490 nM
same,TGI,K-562 leukemia,> 100000 nM
same,GI50,UACC-62 melanoma,1010 nM
same,TGI,UACC-62 melanoma,6170 nM
same,GI50,COLO 205 colon,1500 nM
same,TGI,COLO 205 colon,16700 nM
same,GI50,HCT-15 colon,608 nM
same,TGI,HCT-15 colon,> 100000 nM
same,GI50,DU-145 prostate,1600 nM
same,TGI,DU-145 prostate,> 100000 nM
same,GI50,MALME-3M melanoma,2350 nM
same,TGI,MALME-3M melanoma,> 100000 nM
same,GI50,SR leukemia,744 nM
same,TGI,SR leukemia,11800 nM
same,GI50,U251 CNS,833 nM
same,TGI,U251 CNS,> 100000 nM
same,GI50,786-0 renal,1750 nM
same,TGI,786-0 renal,> 100000 nM
same,GI50,M14 melanoma,769 nM
same,TGI,M14 melanoma,> 100000 nM
same,GI50,EKVX NSCLC,1390 nM
same,TGI,EKVX NSCLC,> 100000 nM
same,GI50,UO-31 renal,708 nM
same,TGI,UO-31 renal,4770 nM
same,GI50,SW-620 colon,801 nM
same,TGI,SW-620 colon,> 100000 nM
same,GI50,HL-60(TB) leukemia,1820 nM
same,TGI,HL-60(TB) leukemia,4290 nM
same,GI50,SK-MEL-28 melanoma,2530 nM
same,TGI,SK-MEL-28 melanoma,> 100000 nM
same,GI50,CCRF-CEM leukemia,2030 nM
same,TGI,CCRF-CEM leukemia,27000 nM
same,GI50,ACHN renal,447 nM
same,TGI,ACHN renal,4800 nM
